Source: patent US6809233B2, “DNA sequences for an amino acid transporter plasmids, bacteria, yeasts and plants containing a transporter and their use” (Hoechst Schering AgrEvo GmbH, priority 1992, dated 2004)

Biological target: T1, amino acid transporter (PPP1-20, SEQ ID No. 1) in 22574d::PPP1-20 yeast strain (Arabidopsis thaliana, UniProt Q42400)
T1 construct: expressed in transfected cells; host or cells: Saccharomyces cerevisiae strain 22574d transformed with pFL61-ppp1-20
T1 sequence (Q42400 1-485): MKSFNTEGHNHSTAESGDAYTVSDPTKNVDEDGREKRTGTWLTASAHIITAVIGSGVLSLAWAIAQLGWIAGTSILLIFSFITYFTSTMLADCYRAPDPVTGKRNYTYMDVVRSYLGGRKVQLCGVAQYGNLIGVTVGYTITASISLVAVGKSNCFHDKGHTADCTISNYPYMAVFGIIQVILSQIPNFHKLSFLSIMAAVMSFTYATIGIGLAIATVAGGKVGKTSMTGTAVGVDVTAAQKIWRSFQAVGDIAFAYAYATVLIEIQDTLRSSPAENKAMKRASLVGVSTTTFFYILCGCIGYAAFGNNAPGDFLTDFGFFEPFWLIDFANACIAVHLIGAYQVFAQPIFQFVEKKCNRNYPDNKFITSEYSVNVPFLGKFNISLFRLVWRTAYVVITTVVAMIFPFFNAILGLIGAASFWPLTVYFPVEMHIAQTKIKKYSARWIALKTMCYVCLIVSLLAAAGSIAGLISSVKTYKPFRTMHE
Assay: Competition of 14C-L-proline uptake by excess of amino acids and analogues in 22574d::PPP1-20 yeast strain
Assay type: cell-based
Protocol: After centrifuging the culture, the cells are washed and taken up in 100 mm tris/HCl pH 4.5, 2 mM MgCl2 and 0.6M sorbitol. Around 100 μL of the suspension was added to a solution of 0.5 mM L-proline plus 1 μCi ^14C labeled L-proline in 100 μL of the same buffer. The uptake of the labeled amino acid was measured by the process described by Cirillo (1989, Meth Enzymol 174: 617-622). The uptake of the labeled amino acid was compared, on the one hand, in co-incubation with protein modifying substance diethyl pyrocarbonate which is an inhibitor of the amino acid transport in membrane vesicles from Beta vulgaris, and, on the other hand, in co-incubation with other protein modifying substances. A competition experiment in which the specificity of the transporter could be read off with various amino acids and analogues is shown in Table II for PPP1-20 and in FIG. 4 for AAP2. An analogous experiment in which a competition for histidine uptake in the line JT16::AAP2 was tested is described in Example 5.

SMILES: O=C(O)[C@H]1NCC(O)C1O (some centres unmarked) [3,4-di-OH proline]
- % remaining transport activity (1 x excess of competitor): 86%
- % remaining transport activity (10 x excess of competitor): 49%
